{
  "source": "patent US20170128362A1",
  "about": "“APPLICATION OF LARGE-DOSE GLYCERINUM IN FREEZE-THAWING TOLERABLE LIPID EMULSION” (Shengyang Pharmaceutical University, priority 2014, published 2017)",
  "origin": "cited, not measured here",
  "details": "0.005% sodium oleate",
  "data": [
    {"smiles": "CCCCCCCC/C=C\\CCCCCCCC(=O)[O-].[Na+]", "note": "[sodium oleate]", "values": [
      {"measurement": "hemolysis", "result": 100, "unit": "%"}
    ]}
  ]
}
